Among the test systems are HCT-116 colon; HOP-62 NSCLC; HOP-92 NSCLC; IGROV1 ovarian; OVCAR-3 ovarian; SF-268 CNS; SF-295 CNS; TK-10 renal.
Common to all, as to test: growth of human tumour cells (NCI), 48 h

Each structure is given as a SMILES string.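 The compound was tested at five concentrations on cells cultured in 96-well plates, with a 48-hour exposure period. GI50 is the concentration that inhibits growth by half. TGI: total growth inhibition.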

The text below walks through data of PubChem BioAssay (NCI).

For `COc1cc(/C=C2/C(=O)N(C(=O)OCC(C)C)C(Cc3cc(OC)c(OC)c(C)c3OC)C(=O)N2Cc2ccccc2)c(OC)c(C)c1OC` (stereo unspecified), the TGI with HCT-116 colon, with HOP-62 NSCLC, with HOP-92 NSCLC, in the assay on IGROV1 ovarian, in the assay with OVCAR-3 ovarian and in the assay with SF-268 CNS was greater than 100 µM throughout. Further, the TGI in the assay on SF-295 CNS and in the assay on TK-10 renal was greater than 100 µM throughout.
For the compound `OC(c1ccccc1)(c1ccccc1)c1ccncc1`, the TGI with HCT-116 colon, with HOP-62 NSCLC, with HOP-92 NSCLC, in the assay on IGROV1 ovarian, in the assay on OVCAR-3 ovarian and in the assay on SF-268 CNS was greater than 100 µM throughout. For the same compound, the TGI with SF-295 CNS and in the assay with TK-10 renal was greater than 100 µM in each case.
For `COc1cc2c(c(OC)c1OC)-c1ccc(SC)c(=O)cc1C(CO)C2` (stereo unspecified), the GI50 in the assay with HCT-116 colon, with HOP-62 NSCLC, with HOP-92 NSCLC, in the assay with IGROV1 ovarian, in the assay on SF-268 CNS and with SF-295 CNS was less than 0.01 µM throughout. Besides, the GI50 in the assay with TK-10 renal was greater than 100 µM. Moreover, the TGI was greater than 100 µM in the assay with HOP-62 NSCLC; greater than 100 µM in the assay with HOP-92 NSCLC; greater than 100 µM with IGROV1 ovarian; 0.449 µM in the assay on OVCAR-3 ovarian; greater than 100 µM in the assay on SF-295 CNS; greater than 100 µM with TK-10 renal.
As for `O=C([CH-]C(=O)c1ccccc1)c1ccccc1.O=C([CH-]C(=O)c1ccccc1)c1ccccc1.[La+3].[OH-].[OH3+]`, the GI50 with HCT-116 colon was 7.89 µM; with HOP-62 NSCLC, 10.9 µM; in the assay with HOP-92 NSCLC, 15.3 µM; with IGROV1 ovarian it was 25.8 µM; in the assay on SF-268 CNS, 13.3 µM; in the assay with TK-10 renal, 32.1 µM. For the same compound, the TGI with HCT-116 colon is 29.6 µM; in the assay with HOP-62 NSCLC, 41.9 µM; in the assay with HOP-92 NSCLC, 38.9 µM; with IGROV1 ovarian it was greater than 100 µM; with SF-268 CNS, 59.5 µM; in the assay on TK-10 renal it was greater than 100 µM.
`CCOc1ccccc1N1C(=O)C(=O)C(c2nc3ccccc3o2)C(=O)C1=O`: the TGI in the assay with HCT-116 colon, in the assay on HOP-62 NSCLC, with HOP-92 NSCLC, in the assay with IGROV1 ovarian, with OVCAR-3 ovarian and with SF-268 CNS was greater than 100 µM throughout. Further, the TGI with SF-295 CNS and in the assay with TK-10 renal was greater than 100 µM throughout.
`CCOC(=O)N1CCN(C=S)CC1`: the TGI in the assay with HCT-116 colon, in the assay on HOP-62 NSCLC, in the assay with IGROV1 ovarian, in the assay on OVCAR-3 ovarian, in the assay with SF-268 CNS and in the assay with TK-10 renal was greater than 100 µM throughout.
For `CCCCNc1nc(C#N)c(N)s1`, the TGI in the assay with HCT-116 colon, in the assay with HOP-62 NSCLC, in the assay with HOP-92 NSCLC, in the assay on IGROV1 ovarian, in the assay on OVCAR-3 ovarian and in the assay with SF-268 CNS was greater than 100 µM in each case. Also, the TGI in the assay on SF-295 CNS and with TK-10 renal was greater than 100 µM throughout.
Turning to `CC(C)C1CC[C@@H](C)C[C@@]1(O)CC(N)=O` (stereo partly specified), the TGI in the assay on HCT-116 colon, in the assay on IGROV1 ovarian, with OVCAR-3 ovarian, in the assay on SF-295 CNS and with TK-10 renal was greater than 100 µM in each case.
Consider `CCOc1ccc2c(c1)[n+]([O-])c(-c1ccc(Cl)cc1)c(N)[n+]2[O-]`, for which the TGI with HCT-116 colon, in the assay with HOP-62 NSCLC, with HOP-92 NSCLC, with IGROV1 ovarian, in the assay on OVCAR-3 ovarian and with SF-268 CNS was greater than 100 µM each time. Also, the TGI with SF-295 CNS is greater than 100 µM.
For the compound `CCC[CH2][Sn]1([CH2]CCC)[O]C(=O)c2cccnc2[O]1`, the GI50 in the assay on HCT-116 colon is 3.61 µM; in the assay with HOP-62 NSCLC it was 3.95 µM; in the assay with HOP-92 NSCLC it was 1.01 µM; in the assay on IGROV1 ovarian, 4.57 µM; in the assay on OVCAR-3 ovarian, 1.91 µM; in the assay with SF-295 CNS it was 3.12 µM. The GI50 in the assay on TK-10 renal was 2.73 µM. Besides, the TGI in the assay on HCT-116 colon is 11.4 µM; with HOP-62 NSCLC, 20.9 µM; in the assay with HOP-92 NSCLC, 4.63 µM; in the assay with IGROV1 ovarian it was 18.4 µM; in the assay on OVCAR-3 ovarian, 8.16 µM; in the assay on SF-295 CNS it was 10.4 µM. In addition, the TGI in the assay on TK-10 renal amounted to 8.23 µM.
In the case of `Oc1c(C(Nc2cccc3cccnc23)c2ccccc2)ccc2cccnc12` (stereo unspecified), the TGI was greater than 100 µM with HCT-116 colon; greater than 100 µM in the assay with HOP-62 NSCLC; 39.9 µM with IGROV1 ovarian; greater than 100 µM with OVCAR-3 ovarian; greater than 100 µM in the assay on SF-268 CNS; greater than 100 µM in the assay with SF-295 CNS.
In the case of `COc1ccc2n[se]nc2c1`, the TGI in the assay on IGROV1 ovarian, with SF-268 CNS, in the assay on SF-295 CNS and in the assay on TK-10 renal was greater than 100 µM each time.
`COc1ccc(Br)c(N/N=C2\CCCNC2=O)c1`: the TGI in the assay on HCT-116 colon, in the assay on HOP-62 NSCLC, in the assay with HOP-92 NSCLC, in the assay on IGROV1 ovarian, in the assay on OVCAR-3 ovarian and with SF-295 CNS was greater than 100 µM throughout. The compound also came in with a TGI with TK-10 renal greater than 100 µM.
